Source: PubChem BioAssay (NCI)
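96-well plates; 48 h exposure; 5 concentrations. Endpoints by linear interpolation between flanking doses. Not reached: highest tested concentration assigned. GI50: concentration for 50% inhibition of growth. The concentration for full growth arrest is given as TGI.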

Columns and labels:
Assay in all cases: NCI tumour cell line growth inhibition, 48 h
NCI-H226 lung = system: NCI-H226 lung
RPMI-8226 leukemia = system: RPMI-8226 leukemia
SF-268 CNS = system: SF-268 CNS
SF-539 CNS = system: SF-539 CNS
SK-MEL-5 melanoma = system: SK-MEL-5 melanoma
SW-620 colon = system: SW-620 colon
UACC-257 melanoma = system: UACC-257 melanoma
MDA-MB-231 breast = system: MDA-MB-231 breast
MDA-MB-435 = system: MDA-MB-435
MCF7 breast = system: MCF7 breast

Row | SMILES | GI50 (NCI-H226 lung) | TGI (NCI-H226 lung) | GI50 (RPMI-8226 leukemia) | TGI (RPMI-8226 leukemia) | GI50 (SF-268 CNS) | TGI (SF-268 CNS) | GI50 (SF-539 CNS) | TGI (SF-539 CNS) | GI50 (SK-MEL-5 melanoma) | TGI (SK-MEL-5 melanoma) | GI50 (SW-620 colon) | TGI (SW-620 colon) | GI50 (UACC-257 melanoma) | TGI (UACC-257 melanoma) | GI50 (MDA-MB-231 breast) | TGI (MDA-MB-231 breast) | GI50 (MDA-MB-435) | TGI (MDA-MB-435) | GI50 (MCF7 breast) | TGI (MCF7 breast)
1 | c1cc[c]([Sn]([S]c2cccc3cccnc23)([S]c2cccc3cccnc23)[c]2ccccc2)cc1 | 0.175 µM | 1.06 µM | 0.158 µM | 0.465 µM | 0.331 µM | 1.48 µM | 0.295 µM | 0.893 µM | 0.204 µM | 0.483 µM | 0.14 µM | 0.365 µM | 0.205 µM | 0.559 µM |  |  |  |  |  | 
2 | CN1CCN(c2ccc(NC3=C(Cl)C(=O)c4ncccc4C3=O)cc2C#N)CC1 | 16.8 µM | 36.3 µM |  |  | 2.09 µM | 5.27 µM | 4.44 µM | 15 µM | 1.83 µM | 3.38 µM | 1.49 µM | 3.62 µM | 1.73 µM | 3.29 µM | 1.57 µM | 4.17 µM | 1.91 µM | 3.67 µM |  | 
3 | c1cc(-c2cn[nH]c2)cc(-c2cn[nH]c2)c1 |  |  |  | > 100 µM |  | > 100 µM |  | 55.4 µM |  | > 100 µM |  | > 100 µM |  | > 100 µM |  |  |  |  |  | 
4 | C=CCC(N[C@H](CO)c1ccccc1)c1cn(S(=O)(=O)c2ccc(C)cc2)c2ccccc12 (some centres not stated) |  |  | 6.85 µM | 46.2 µM | > 100 µM | > 100 µM | 21.4 µM | 38.2 µM | 26.1 µM | 43.8 µM | 31.8 µM | 85.9 µM | 10.7 µM | 26.7 µM | 10.7 µM | 32.3 µM | 19 µM | 46.8 µM | > 100 µM | > 100 µM
5 | BrC1=CC=C2NCCCCCCN=C3C=CC(Br)=CC=C3NCCCCCCN=C2C=C1 |  | > 25.5 µM |  | > 25.5 µM |  | > 25.5 µM |  | > 25.5 µM |  | > 25.5 µM |  | > 25.5 µM |  | > 25.5 µM |  |  |  |  |  | 
6 | O=C(Nc1ccc(Cl)cc1)c1cc(S(=O)(=O)Nc2nnc(-c3ccccc3)c(-c3ccccc3)n2)c(SCc2ccccc2)cc1Cl | 27.7 µM | > 70.2 µM |  |  | 26.9 µM | > 68.3 µM | 35 µM | > 100 µM | 18.1 µM | 39.4 µM | 38.1 µM | > 100 µM | 21.9 µM | 61.3 µM | 19.3 µM | > 56.2 µM | 21.2 µM | 61.5 µM | 29.6 µM | > 92 µM
7 | Cc1cc(C)c2c(SCc3ccc(Cl)cc3Cl)nc(N)nc2n1 |  | > 100 µM |  | > 100 µM |  | > 100 µM |  |  |  | > 100 µM |  | > 100 µM |  | 38.2 µM |  | > 100 µM |  | > 100 µM |  | > 100 µM
8 | COC(=O)OCc1ccc2c(c1)C(=O)c1c-2n(CCCBr)c(=O)c2cc([N+](=O)[O-])ccc12 | > 100 µM | > 100 µM |  |  | > 100 µM | > 100 µM | 56 µM | > 100 µM | > 100 µM | > 100 µM | > 100 µM | > 100 µM | > 100 µM | > 100 µM | 52.7 µM | > 100 µM | > 100 µM | > 100 µM | > 100 µM | > 100 µM
9 | COc1ccc(C(=O)C(C(=O)C(=O)Nc2nccs2)c2ccc(OC)cc2)cc1 (configuration not stated) |  |  |  | > 100 µM |  | > 100 µM |  | > 100 µM |  | > 100 µM |  | > 100 µM |  | > 100 µM |  |  |  |  |  | 
10 | Cc1cccc2c1O/C(=C\c1ccc([N+](=O)[O-])o1)C2=O | 1.42 µM | 3.14 µM | 0.32 µM | 1.8 µM | 1.56 µM | 3.94 µM | 1.53 µM | 3.22 µM | 1.14 µM | 2.42 µM | 0.223 µM | 0.864 µM | 1.42 µM | 2.91 µM | 1.21 µM | 3.61 µM | 1.02 µM | 2.46 µM |  | 
11 | CCCCN(CCCC)C(=O)C(=O)C(C)C(=O)CC (configuration not stated) |  | > 100 µM |  | > 100 µM |  | > 100 µM |  | > 100 µM |  |  |  | > 100 µM |  | > 100 µM |  |  |  |  |  | 
12 | CC1CCP(=O)(c2ccccc2)CC1 (configuration not stated) |  |  |  | > 100 µM |  | > 100 µM |  | > 100 µM |  | > 100 µM |  | > 100 µM |  | > 100 µM |  |  |  |  |  | 
13 | Nc1ccc2ccc(NS(=O)(=O)N3CCCCC3)cc2c1 | 2.56 µM | > 100 µM | 0.507 µM | > 49.6 µM | 1.57 µM | > 100 µM |  |  | 0.285 µM | 4.52 µM | 0.336 µM | > 100 µM | 12.9 µM | > 100 µM | 0.728 µM | > 33.7 µM |  |  | 0.295 µM | > 100 µM
14 | C#C[C@H](CCCC)OC(=O)N[C@H](C)c1ccccc1 |  |  |  | 69.4 µM |  | > 100 µM |  |  |  | 37 µM |  | > 100 µM |  | 71 µM |  |  |  |  |  | 
15 | COc1ccc(/C=C/C(=O)c2cc3c(N)c(C(=O)Nc4ccccc4C)sc3nc2C)cc1 | 0.619 µM | 12.2 µM | 1.4 µM | > 25.5 µM | 1.24 µM | > 50 µM | 0.487 µM | 1.68 µM | 0.214 µM | 7.58 µM | 0.83 µM | > 50 µM | 16.1 µM | > 50 µM | 1.18 µM | > 38.5 µM |  |  | 0.24 µM | > 50 µM
16 | O=C1c2ccn(CCCCN3CCCCC3)c2C(=O)c2c1c(O)c1ccccc1c2O | 30 µM | > 73.7 µM | 2.74 µM | 9.29 µM | 14.9 µM | 42.7 µM | 6 µM | 42.1 µM | 13.3 µM | 33.9 µM | 3.18 µM | 10.6 µM | 5.83 µM | 12.2 µM |  |  | 2.19 µM | 5.27 µM | 14.2 µM | > 62.3 µM
17 | Cc1cccc(C)c1NC(=O)CCC(=O)NC(N)=S |  | > 100 µM |  | > 100 µM |  |  |  | > 100 µM |  | > 100 µM |  | > 100 µM |  | > 100 µM |  |  |  |  |  | 
18 | O=[N+]([O-])[O-].O=[N+]([O-])[O-].[Au].[Au].c1ccc([P-]c2ccccc2)cc1.c1ccc([P-]c2ccccc2)cc1 |  |  | 14.3 µM | > 100 µM | 65.1 µM | > 100 µM | 43.9 µM | 77.7 µM | 34.1 µM | 88.8 µM | 38.7 µM | > 100 µM | 26.3 µM | 62.7 µM |  |  |  |  |  | 
